Data: patent US20030203850A1, “Transdifferentiation of pancreatic acinar cells” (McGill University, priority 2002, published 2003)
Ends that are not written are not given here.

System: β-cell mass
Experiment: INGAP peptide administration to hamsters: extra-islet acinar-associated and total β-cell mass
Type: in vivo
Conditions: 250 μg twice daily intra-peritoneal, female Syrian hamsters
Method: Female Syrian hamsters, 8 weeks of age, were randomly allocated to receive daily intra-peritoneal injections of INGAP peptide (Ile-Gly-Leu-His-Asp-Pro-Ser-His-Gly-Thr-Leu-Pro-Asn-Gly-Ser) (250 μg twice daily) or an equivalent volume of saline for either 10 (saline n=10, INGAP n=15) or 30 (S n=10, I n=15) days. At the end of the study period, animals were sacrificed by bleeding, and the pancreata excised through a midline laparotomy incision, for morphologic and morphometric analysis.
Samples were embedded in paraffin wax and 4 μm-thick sections were cut. The sections were processed for routine histology and immunostained for insulin, CK19 (1:750, 1:100 respective antibody dilution, Dako Corp., Santa Barbara, Calif.), glucagon, somatostatin and pancreatic polypeptide (1:750 antibody dilution, Biogenex, San Ramon, Calif., USA), using the AB complex method (streptavidin-biotin horseradish peroxidase complex, Dako Corp., Santa Barbara, Calif.), as described previously (22). A rabbit PDX-1 antibody directed against the NH2-terminus of the frog homologue of the protein encoded by the pdx-1 gene was used as the primary antibody (1:750 dilution; a gift from C. Wright, Vanderbilt University). Slides were countered stained with Harris hematoxylin (Sigma, St. Louis, Mo.).
Comparison between groups was done using 1-way ANOVA, 2-way ANOVA with post hoc one-tail t-test or X^2 analysis where appropriate. Data are presented as mean±SEM. Significance was accepted at the 5% level.
To determine β-cell mass (mg/pancreas), each gland was sectioned along its longitudinal axis to avoid any sampling bias due to regional variation in islet distribution and cell composition. Islet cross-sectional areas were traced manually with the aid of an Olympus BX60 microscope connected by video camera to a computer equipped with Image-pro Plus software version 4.0 (23). The total β-cell mass was calculated by a stereological equation, as described previously (22).
β-cell neogenesis and acinar-associated β-cell mass was analysed as described previously […]. Briefly, extra-islet acinar-associated β-cells/cell clusters were defined as insulin positive cells/cell clusters not associated with any other endocrine cells (α, δ, PP), completely surrounded by acinar tissue and a minimum of 100 μm from ductular tissue. The percent β-cell area being extra-islet acinar-associated was determined and multiplied by the weight of the excised organ to determine extra-islet acinar-associated β-cell mass.

IGLHDPSHGTLPNGS [INGAP peptide]
increase in extra-islet acinar-associated β-cell mass versus saline infused controls (10 days of treatment): 180%
increase in total β-cell mass (10 days of treatment): 44%
increase in total β-cell mass (30 days of treatment): 31%
increase in extra-islet acinar-associated β-cell mass versus saline infused controls (30 days of treatment, p<0.05): 200%
